{"source": "patent US7531320B2", "about": "“Modulation of β-catenin/TCF-activated transcription” (priority 2003, dated 2009)", "biological_target": "T1, p300 (1-111) (Homo sapiens, UniProt Q09472)", "T1 construct": "6xHis (C); HSV tag (C); expressed in transfected cells", "T1 sequence (Q09472 1-117)": "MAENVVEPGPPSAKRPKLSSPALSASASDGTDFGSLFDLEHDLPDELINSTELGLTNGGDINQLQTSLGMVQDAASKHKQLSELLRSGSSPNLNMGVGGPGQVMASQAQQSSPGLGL", "experiment": "Pull-down of p300 deletion constructs on COMPOUND 2 coated beads, competition with excess COMPOUND 1", "assay_type": "binding", "details": "p300 (1-111), (1-211), (1-351) in SW480 lysates, 150 μM COMPOUND 1", "procedure": "FIG. 2. The first 111 amino acids of CBP, but not p300, specifically bind COMPOUND 1. • A. Schematic representation of the wild-type and deletion constructs for CBP. • B. CBP (1-111) contains the minimal binding domain of COMPOUND 1. Expression levels of CBP deletion constructs in SW480 cells are shown (upper panel). 10 μg of total protein was subjected to gel electrophoresis and subjected to immunoblotting using anti-His antibodies. Whole cell lysates of SW480 cells expressing CBP deletion constructs were bound to streptavidin-agarose beads coated with 100 μM of COMPOUND 2. The bound fractions were subjected to gel electrophoresis and immunoblotting using anti-His antibodies (lower panel). Arrows point to constructs which remained bound to COMPOUND 2 coated beads. • C. […] CBP deletion constructs, CBP(1-111),CBP (1-211), and CBP (1-351) and p300 deletion constructs, p300 (1-111), p300 (1-211), and p300 (1-351) were transfected into SW480 cells. Whole cell lysates were incubated with streptavidin-agarose beads or streptavidin-agarose beads coated with 100 μM COMPOUND 2 (lower panel). The binding of CBP constructs (1-111,1-211, and 1-351) and p300 constructs (1-111,1-211, and 1-351) to the beads was challenged with excess COMPOUND 1 (150 μM). • D. CBP (1-111) binds to COMPOUND 1 in a phosphorylation independent manner. […]", "data": [{"smiles": "O=C1C(Cc2ccc(O)cc2)N2C(=O)CCN(C(=O)NCc3ccccc3)C2CN1Cc1cccc2ccccc12", "note": "(stereo not shown) [COMPOUND 1]", "values": [{"measurement": "Competition of p300 fragment binding to COMPOUND 2 beads by excess COMPOUND 1", "result": "failed to have any effect"}]}]}
